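Protocol summary: plate cells (96-well), add compound at 5 concentrations, incubate 48 h, interpolate endpoints linearly. Definition used: TGI = concentration required for complete inhibition of growth.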
How the values were obtained:
Experiment in all cases: inhibition of tumour cell growth, NCI panel, 48 h
[1] = system: NCI-H522 lung
[2] = system: K-562 leukemia
[3] = system: U251 CNS
[4] = system: CAKI-1 renal
[5] = system: SNB-75 CNS
[6] = system: HL-60(TB) leukemia
[7] = system: DMS 114 small cell lung
[8] = system: UACC-62 melanoma
[9] = system: SNB-19 CNS
[10] = system: NCI-H23 lung
[11] = system: UO-31 renal
[12] = system: DMS 273 small cell lung
[13] = system: HOP-92 NSCLC
[14] = system: RPMI-8226 leukemia
[15] = system: MOLT-4 leukemia
[16] = system: NCI-H460 lung
[17] = system: ACHN renal
[18] = system: SK-OV-3 ovarian
[19] = system: A498 renal
[20] = system: OVCAR-4 ovarian
[21] = system: XF 498 CNS
[22] = system: SF-539 CNS
[23] = system: A549 NSCLC
[24] = system: HCC-2998 colon
[25] = system: UACC-257 melanoma
[26] = system: SN12C renal
[27] = system: COLO 205 colon
[28] = system: DLD-1 colon
[29] = system: MALME-3M melanoma
[30] = system: NCI-H226 lung
[31] = system: IGROV1 ovarian
[32] = system: SW-620 colon
[33] = system: HCT-116 colon
[34] = system: CCRF-CEM leukemia
[35] = system: OVCAR-3 ovarian
[36] = system: SK-MEL-5 melanoma
[37] = system: SR leukemia
[38] = system: SF-268 CNS
[39] = system: OVCAR-5 ovarian
[40] = system: LXFL 529 NSCLC
[41] = system: M14 melanoma
[42] = system: M19-MEL melanoma
[43] = system: OVCAR-8 ovarian
[44] = system: KM12 colon
[45] = system: LOX IMVI melanoma
[46] = system: KM20L2 colon
[47] = system: EKVX NSCLC
[48] = system: SK-MEL-28 melanoma
[49] = system: SK-MEL-2 melanoma
[50] = system: TK-10 renal
[51] = system: 786-0 renal
[52] = system: HOP-62 NSCLC
[53] = system: HCT-15 colon
[54] = system: HS 578T breast
[55] = system: MDA-MB-435
[56] = system: NCI/ADR-RES ovarian
[57] = system: T-47D breast
[58] = system: MCF7 breast
[59] = system: MDA-MB-231 breast
[60] = system: SF-295 CNS
[61] = system: PC-3 prostate
[62] = system: HT29 colon
[63] = system: MDA-N
[64] = system: BT-549 breast
[65] = system: RXF 393 renal
[66] = system: DU-145 prostate

Compound: Cc1ccc(S(=O)(=O)C2=c3nc4ccccc4cc3=C3C(=O)c4ccccc4C(=O)C32)cc1 (centres undefined)
- TGI [1]: > 100 µM
- TGI [2]: > 100 µM
- TGI [3]: > 100 µM
- TGI [4]: > 100 µM
- TGI [5]: > 100 µM
- TGI [6]: > 100 µM
- TGI [7]: > 100 µM
- TGI [8]: > 100 µM
- TGI [9]: > 100 µM
- TGI [10]: > 100 µM
- TGI [11]: > 100 µM
- TGI [12]: > 100 µM
- TGI [13]: > 100 µM
- TGI [14]: > 100 µM
- TGI [15]: > 100 µM
- TGI [16]: > 100 µM
- TGI [17]: > 100 µM
- TGI [18]: > 100 µM
- TGI [19]: > 100 µM
- TGI [20]: > 100 µM
- TGI [21]: > 100 µM
- TGI [22]: > 100 µM
- TGI [23]: > 100 µM
- TGI [24]: > 100 µM
- TGI [25]: > 100 µM
- TGI [26]: > 100 µM
- TGI [27]: > 100 µM
- TGI [28]: > 100 µM
- TGI [29]: > 100 µM
- TGI [30]: > 100 µM
- TGI [31]: > 100 µM
- TGI [32]: > 100 µM
- TGI [33]: > 100 µM
- TGI [34]: > 100 µM
- TGI [35]: > 100 µM
- TGI [36]: > 100 µM
- TGI [37]: > 100 µM
- TGI [38]: > 100 µM
- TGI [39]: > 100 µM
- TGI [40]: > 100 µM
- TGI [41]: > 100 µM
- TGI [42]: > 100 µM
- TGI [43]: > 100 µM
- TGI [44]: > 100 µM
- TGI [45]: > 100 µM
- TGI [46]: > 100 µM
- TGI [47]: > 100 µM
- TGI [48]: > 100 µM
- TGI [49]: > 100 µM
- TGI [50]: > 100 µM
- TGI [51]: > 100 µM
- TGI [52]: > 100 µM
- TGI [53]: > 100 µM

Compound: O=c1c2cnccc2cc2c3ccccc3ccn12
- TGI [1]: > 100 µM
- TGI [2]: > 100 µM
- TGI [3]: > 100 µM
- TGI [4]: > 100 µM
- TGI [5]: > 100 µM
- TGI [6]: > 100 µM
- TGI [54]: > 100 µM
- TGI [8]: > 100 µM
- TGI [9]: > 100 µM
- TGI [55]: > 100 µM
- TGI [56]: > 100 µM
- TGI [10]: > 100 µM
- TGI [57]: > 100 µM
- TGI [11]: > 100 µM
- TGI [58]: > 100 µM
- TGI [13]: > 100 µM
- TGI [14]: > 100 µM
- TGI [15]: 91.8 µM
- TGI [16]: > 100 µM
- TGI [17]: > 100 µM
- TGI [18]: > 100 µM
- TGI [59]: > 100 µM
- TGI [19]: > 100 µM
- TGI [60]: > 100 µM
- TGI [20]: > 100 µM
- TGI [22]: > 100 µM
- TGI [23]: > 100 µM
- TGI [24]: > 100 µM
- TGI [25]: > 100 µM
- TGI [26]: > 100 µM
- TGI [27]: > 100 µM
- TGI [61]: > 100 µM
- TGI [29]: > 100 µM
- TGI [62]: > 100 µM
- TGI [30]: > 100 µM
- TGI [31]: 33.3 µM
- TGI [32]: > 100 µM
- TGI [33]: > 100 µM
- TGI [63]: > 100 µM
- TGI [34]: > 100 µM
- TGI [35]: > 100 µM
- TGI [36]: > 100 µM
- TGI [37]: > 100 µM
- TGI [38]: > 100 µM
- TGI [39]: > 100 µM
- TGI [41]: > 100 µM
- TGI [43]: > 100 µM
- TGI [44]: > 100 µM
- TGI [45]: > 100 µM
- TGI [64]: > 100 µM
- TGI [47]: > 100 µM
- TGI [48]: > 100 µM
- TGI [49]: > 100 µM
- TGI [65]: > 100 µM
- TGI [50]: > 100 µM
- TGI [51]: > 100 µM
- TGI [66]: > 100 µM
- TGI [52]: > 100 µM
- TGI [53]: > 100 µM

Compound: CCOC(=O)C(Cc1ccccc1)NC(=O)c1[nH]cnc1/N=N/N(C)C (centres undefined)
- TGI [1]: > 100 µM
- TGI [2]: > 100 µM
- TGI [3]: > 100 µM
- TGI [4]: > 100 µM
- TGI [5]: > 100 µM
- TGI [6]: > 100 µM
- TGI [7]: > 100 µM
- TGI [8]: > 100 µM
- TGI [9]: > 100 µM
- TGI [10]: > 100 µM
- TGI [11]: > 100 µM
- TGI [12]: > 100 µM
- TGI [14]: > 100 µM
- TGI [15]: > 100 µM
- TGI [16]: > 100 µM
- TGI [17]: > 100 µM
- TGI [18]: > 100 µM
- TGI [19]: > 100 µM
- TGI [60]: > 100 µM
- TGI [20]: > 100 µM
- TGI [22]: > 100 µM
- TGI [23]: > 100 µM
- TGI [24]: > 100 µM
- TGI [25]: > 100 µM
- TGI [26]: > 100 µM
- TGI [27]: > 100 µM
- TGI [28]: > 100 µM
- TGI [29]: > 100 µM
- TGI [62]: > 100 µM
- TGI [30]: > 100 µM
- TGI [31]: > 100 µM
- TGI [32]: > 100 µM
- TGI [33]: > 100 µM
- TGI [34]: > 100 µM
- TGI [35]: > 100 µM
- TGI [36]: > 100 µM
- TGI [37]: > 100 µM
- TGI [38]: > 100 µM
- TGI [39]: > 100 µM
- TGI [40]: > 100 µM
- TGI [41]: > 100 µM
- TGI [42]: > 100 µM
- TGI [43]: > 100 µM
- TGI [44]: > 100 µM
- TGI [45]: > 100 µM
- TGI [47]: > 100 µM
- TGI [48]: > 100 µM
- TGI [49]: > 100 µM
- TGI [51]: > 100 µM
- TGI [52]: > 100 µM
- TGI [53]: > 100 µM

Compound: CCN(CC)c1ccc(/C=C2\CCc3ccc([N+](=O)[O-])cc3C2=O)cc1
- TGI [1]: > 100 µM
- TGI [2]: > 100 µM
- TGI [3]: > 100 µM
- TGI [4]: > 100 µM
- TGI [5]: 24.3 µM
- TGI [6]: 5.33 µM
- TGI [54]: > 100 µM
- TGI [8]: > 100 µM
- TGI [9]: > 30.1 µM
- TGI [55]: 0.744 µM
- TGI [56]: > 30.7 µM
- TGI [10]: > 100 µM
- TGI [57]: > 100 µM
- TGI [11]: > 100 µM
- TGI [58]: > 100 µM
- TGI [13]: > 100 µM
- TGI [14]: > 100 µM
- TGI [15]: > 100 µM
- TGI [16]: > 48.9 µM
- TGI [17]: > 100 µM
- TGI [18]: > 100 µM
- TGI [59]: > 100 µM
- TGI [19]: 69.9 µM
- TGI [60]: 7.55 µM
- TGI [20]: > 100 µM
- TGI [22]: 7.09 µM
- TGI [23]: > 100 µM
- TGI [24]: > 100 µM
- TGI [26]: > 100 µM
- TGI [27]: > 100 µM
- TGI [61]: > 100 µM
- TGI [29]: > 100 µM
- TGI [62]: 2.21 µM
- TGI [30]: > 100 µM
- TGI [31]: > 100 µM
- TGI [32]: > 100 µM
- TGI [33]: > 100 µM
- TGI [63]: 0.523 µM
- TGI [34]: > 100 µM
- TGI [35]: 56.9 µM
- TGI [36]: > 100 µM
- TGI [37]: > 100 µM
- TGI [38]: > 100 µM
- TGI [39]: > 100 µM
- TGI [41]: > 100 µM
- TGI [43]: > 100 µM
- TGI [44]: > 100 µM
- TGI [45]: > 100 µM
- TGI [64]: > 100 µM
- TGI [47]: > 100 µM
- TGI [48]: > 100 µM
- TGI [65]: > 29.9 µM
- TGI [50]: > 100 µM
- TGI [51]: > 100 µM
- TGI [66]: > 100 µM
- TGI [53]: > 100 µM

From PubChem BioAssay (NCI)
